The source made the active and inactive calls. The rule behind the calls is not given here.
System: rodent carcinogenicity bioassays, tumor incidence
Assay: CCRIS carcinogenicity studies
Summary of the method: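 Archive of carcinogenicity, mutagenicity, tumor promotion and tumor inhibition results drawn from journals, NCI reports and other sources, expert-reviewed; covers 1985-2011 and is no longer updated.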

C[C@]12CC[C@@H]3c4ccc(O)cc4CC[C@H]3[C@@H]1C[C@@H](O)[C@@H]2O
carcinogen call (Species: HAMSTER, Route: SUBCUTANEOUS IMPLANT, Tumor Site: Type of Lesion: KIDNEY): active; positive | carcinogen call (Species: HUMAN, Tumor Site: Type of Lesion: UTERUS (ENDOMETRIUM)): active; positive | carcinogen call (Species: MOUSE, Route: SUBCUTANEOUS IMPLANT, Tumor Site: Type of Lesion: MAMMARY GLAND): active; positive

CC(=O)OC/C=C(C)/C=C/C=C(C)/C=C/C1=C(C)CCCC1(C)C
carcinogen call (Species: RAT, Strain/Sex: F344/FEMALE, Route: ORAL, Dose: 0, 0.125, 0.25% IN DRINKING WATER (TOTAL DOSE: 0; 50; 95 G/KG) FOR 104 WK (STUDY DURATION: 108 WK), Dose: 0, 0.125, 0.25% IN DRINKING WATER (TOTAL DOSE: 0; 50; 95 G/KG) FOR 104 WK (STUDY DURATION: 108 WK), Tumor Site: Type of Lesion: ADRENAL GLAND: MALIGNANT OR BENIGN PHEOCHROMOCYTOMA, BENIGN PHEOCHROMOCYTOMA, BILATERAL LESIONS, CLITORAL GLAND: ADENOMA): active; positive | carcinogen call (Species: RAT, Strain/Sex: F344/MALE, Route: ORAL, Dose: 0, 0.125, 0.25% IN DRINKING WATER (TOTAL DOSE: 0; 50; 95 G/KG) FOR 104 WK (STUDY DURATION: 108 WK), Dose: 0, 0.125, 0.25% IN DRINKING WATER (TOTAL DOSE: 0; 50; 95 G/KG) FOR 104 WK (STUDY DURATION: 108 WK), Tumor Site: Type of Lesion: ADRENAL GLAND: MALIGNANT PHEOCHROMOCYTOMA, BENIGN PHEOCHROMOCYTOMA, BILATERAL LESIONS): active; positive

NCC1(CC(=O)O)CCCCC1
carcinogen call (Species: RAT, Strain/Sex: WISTAR/FEMALE, Route: ORAL, Dose: 0, 250, 1000, 2000 MG/KG IN DIET FOR 104 WK (STUDY DURATION: 104 WK), Dose: 0, 250, 1000, 2000 MG/KG IN DIET FOR 104 WK (STUDY DURATION: 104 WK)): inactive; negative | carcinogen call (Species: RAT, Strain/Sex: WISTAR/MALE, Route: ORAL, Dose: 0, 250, 1000, 2000 MG/KG IN DIET FOR 104 WK (STUDY DURATION: 104 WK), Dose: 0, 250, 1000, 2000 MG/KG IN DIET FOR 104 WK (STUDY DURATION: 104 WK), Tumor Site: Type of Lesion: PANCREAS: ACINAR CELL ADENOMA, ACINAR CELL CARCINOMA): active; positive

O=C(Nc1ccccc1)Nc1ccnc(Cl)c1
carcinogen call (Species: Mouse, Strain/Sex: CD-1/Female (60/Group), Route: Oral, Dose: 0, 10, 1000 mg/kg/day of 96.9% forchlorfenuron in diet for 18 mo, study duration 18 mo, Dose: 0, 10, 1000 mg/kg/day of 96.9% forchlorfenuron in diet for 18 mo, study duration 18 mo): inactive; negative | carcinogen call (Species: Mouse, Strain/Sex: CD-1/Male (60/Group), Route: Oral, Dose: 0, 10, 1000 mg/kg/day of 96.9% forchlorfenuron in diet for 18 mo, study duration 18 mo, Dose: 0, 10, 1000 mg/kg/day of 96.9% forchlorfenuron in diet for 18 mo, study duration 18 mo): inactive; negative | carcinogen call (Species: Rat, Strain/Sex: Strain not specified by Department of Pesticides Regulation/Female (70/Group), Route: Oral, Dose: 0, 9, 122, 518 mg/kg/day of 98.5% forchlorfenuron in diet for up to 2 yr, study duration 2 yr, Dose: 0, 9, 122, 518 mg/kg/day of 98.5% forchlorfenuron in diet for up to 2 yr, study duration 2 yr): inactive; negative | carcinogen call (Species: Rat, Strain/Sex: Strain not specified by Department of Pesticides Regulation/Male (70/Group), Route: Oral, Dose: 0, 7, 93, 352 mg/kg/day of 98.5% forchlorfenuron in diet for up to 2 yr, study duration 2 yr, Dose: 0, 7, 93, 352 mg/kg/day of 98.5% forchlorfenuron in diet for up to 2 yr, study duration 2 yr): inactive; negative

Cc1ccc(N=Nc2c(O)c(C(=O)O)cc3ccccc23)c(S(=O)(=O)O)c1
carcinogen call (Species: MOUSE, Strain/Sex: ICR/FEMALE, Route: DERMAL, Dose: 0, 1 MG IN 0.1 ML DISTILLED WATER 2/WK FOR A MEAN TOTAL DOSE OF 130.6 MG (STUDY DURATION: 18 MO)): inactive; negative | carcinogen call (Species: MOUSE, Strain/Sex: ICR/MALE, Route: DERMAL, Dose: 0, 1 MG IN 0.1 ML DISTILLED WATER 2/WK FOR A MEAN TOTAL DOSE OF 130.6 MG (STUDY DURATION: 18 MO)): inactive; negative

COc1cc2c(c3oc(=O)c4c(c13)CCC4=O)[C@@H]1CCO[C@@H]1O2
carcinogen call (Species: HUMAN, Route: ORAL, Tumor Site: Type of Lesion: LIVER): active; positive | carcinogen call (Species: RAT, Route: ORAL, Tumor Site: Type of Lesion: LIVER): active; positive

O=P(O)(O)O
carcinogen call (Species: MOUSE, Strain/Sex: B6C3F1/FEMALE, Route: GAVAGE, Dose: 0, 500, 1000 MG/KG IN DEIONIZED WATER 5D/WK FOR 103 WK (STUDY DURATION: 105 WK), Dose: 0, 500, 1000 MG/KG IN DEIONIZED WATER 5D/WK FOR 103 WK (STUDY DURATION: 105 WK)): inactive; negative | carcinogen call (Species: MOUSE, Strain/Sex: B6C3F1/MALE, Route: GAVAGE, Dose: 0, 500, 1000 MG/KG IN DEIONIZED WATER 5D/WK FOR 103 WK (STUDY DURATION: 105 WK), Dose: 0, 500, 1000 MG/KG IN DEIONIZED WATER 5D/WK FOR 103 WK (STUDY DURATION: 105 WK)): inactive; negative

Oc1cc(Cl)ccc1Oc1ccc(Cl)cc1Cl
carcinogen call (Species: Hamster, Strain/Sex: Bio FID Alexander Syrian/Female (60/group), Route: Oral, Dose: 0, 12.5, 75, 250 mg/kg in diet for 90-95 wk, Dose: 0, 12.5, 75, 250 mg/kg in diet for 90-95 wk): inactive; negative (study details not given in source; purity 99.5%) | carcinogen call (Species: Hamster, Strain/Sex: Bio FID Alexander Syrian/Male (60/group), Route: Oral, Dose: 0, 12.5, 75, 250 mg/kg in diet for 90-95 wk, Dose: 0, 12.5, 75, 250 mg/kg in diet for 90-95 wk): inactive; negative (study details not given in source; purity 99.5%) | carcinogen call (Species: Rat, Strain/Sex: Sprague-Dawley/Female (60/group), Route: Oral, Dose: 0, 300, 1,200, 3,000 ppm in diet for 78 wk, Dose: 0, 300, 1,200, 3,000 ppm in diet for 78 wk): inactive; negative (study details not given in source; purity 99%) | carcinogen call (Species: Rat, Strain/Sex: Sprague-Dawley/Male (60/group), Route: Oral, Dose: 0, 300, 1,200, 3,000 ppm in diet for 78 wk, Dose: 0, 300, 1,200, 3,000 ppm in diet for 78 wk): inactive; negative (study details not given in source; purity 99%)

CCCCOC(=O)c1ccccc1C(=O)OCc1ccccc1
carcinogen call (Species: MOUSE, Strain/Sex: B6C3F1/FEMALE, Route: ORAL, Dose: 0, 6000, 12000 PPM IN DIET FOR 103 WK (STUDY DURATION: 105-106 WK), Dose: 0, 6000, 12000 PPM IN DIET FOR 103 WK (STUDY DURATION: 105-106 WK)): inactive; negative | carcinogen call (Species: MOUSE, Strain/Sex: B6C3F1/MALE, Route: ORAL, Dose: 0, 6000, 12000 PPM IN DIET FOR 103 WK (STUDY DURATION: 104-106 WK), Dose: 0, 6000, 12000 PPM IN DIET FOR 103 WK (STUDY DURATION: 104-106 WK)): inactive; negative | carcinogen call (Species: RAT, Strain/Sex: F344/FEMALE, Route: ORAL, Dose: 0, 6000, 12000, 24000 PPM IN DIET FOR DURATION OF STUDY (STUDY DURATION: 104 WK), Dose: 0, 6000, 12000, 24000 PPM IN DIET FOR DURATION OF STUDY (STUDY DURATION: 104 WK), Tumor Site: Type of Lesion: PANCREAS: ACINAR CELL ADENOMA, URINARY BLADDER: TRANSITIONAL EPITHELIAL PAPILLOMA): equivocal | carcinogen call (Species: RAT, Strain/Sex: F344/FEMALE, Route: ORAL, Dose: 0, 24000 PPM IN DIET FOR 105 WK, CONTROL GROUP DIET RESTRICTED TO LIMIT WEIGHTS TO 85% OF AD LIBITUM-FED GROUP (STUDY DU): inactive; negative | carcinogen call (Species: RAT, Strain/Sex: F344/FEMALE, Route: ORAL, Dose: 0, 24000 PPM IN DIET FOR 106 WK, CONTROL AND DOSED GROUP FED AD LIBITUM (STUDY DURATION: 2 YR)): inactive; negative | carcinogen call (Species: RAT, Strain/Sex: F344/FEMALE, Route: ORAL, Dose: 0, 24000 PPM IN DIET FOR 106 WK, CONTROL GROUP WAS WEIGHT-MATCHED TO DOSED GROUP (STUDY DURATION: 2 YR)): inactive; negative | carcinogen call (Species: RAT, Strain/Sex: F344/MALE, Route: ORAL, Dose: 0, 3000, 6000, 12000 PPM IN DIET FOR DURATION OF STUDY (STUDY DURATION: 104 WK), Dose: 0, 3000, 6000, 12000 PPM IN DIET FOR DURATION OF STUDY (STUDY DURATION: 104 WK), Tumor Site: Type of Lesion: PANCREAS: ACINAR CELL ADENOMA, ACINAR CELL ADENOMA OR CARCINOMA): active; positive | carcinogen call (Species: RAT, Strain/Sex: F344/MALE, Route: ORAL, Dose: 0, 12000 PPM IN DIET FOR 105 WK, CONTROL AND DOSED GROUPS FED AD LIBITUM (STUDY DURATION 2 YR), Tumor Site: Type of Lesion: PANCREAS(ACINUS): ADENOMA): active; positive | carcinogen call (Species: RAT, Strain/Sex: F344/MALE, Route: ORAL, Dose: 0, 12000 PPM IN DIET FOR 105 WK, CONTROL GROUP DIET RESTRICTED TO LIMIT WEIGHTS TO 85% OF AD LIBITUM-FED GROUPS (STUDY D): inactive; negative | carcinogen call (Species: RAT, Strain/Sex: F344/MALE, Route: ORAL, Dose: 0, 12000 PPM IN DIET FOR 105 WK, CONTROL GROUP WAS WEIGHT-MATCHED TO DOSED GROUP (STUDY DURATION: 2 YR), Tumor Site: Type of Lesion: PANCREAS(ACINUS): ADENOMA): active; positive | carcinogen call (Species: RAT, Strain/Sex: F344/MALE, Route: ORAL, Dose: 0, 12000 PPM IN DIET FOR 128 WK, CONTROL GROUP DIET RESTRICTED TO LIMIT WEIGHTS TO 85% OF AD LIBITUM-FED GROUP (STUDY DU): inactive; negative

From PubChem BioAssay AID1259411 (Chemical Carcinogenesis Research Information System (CCRIS), 2018)
